One block for each compound: values may come before it.
Assays:
[1] = Solid state stability, PXRD; assay type: physicochemical; design: key: X: crystalline; S: stable
Protocol: Thus, the X-ray diffraction patterns of the co-crystals of provided herein were measured on a PANalytical X'PertPRO Powder X-ray diffractometer equipped with goniometer of θ/θ configuration and X'celerator detector. The Cu-anode X-ray tube was operated at 45 kV and 40 mA. The experiments were conducted over the 2θ range of 2.0°-50.0°, 0.030° step size and 189.865 time per step (seconds) and all the co-crystals were characterized with above mentioned method.
(§1) The samples were analyzed by PXRD, assay and related substances by HPLC.

[2] = Solid state stability, HPLC meloxicam co-crystal assay; assay type: physicochemical
Protocol: • Instrumentation: Waters HPLC system having 2695 model pump having UV/PDA detector with Empower chromatography software or its equivalent. • Column: (A) Unison UK C18 column; (B) YMC Trait C18 EXRS Column, 250×4.6 mm, 5.0 micron; (C) Water Atlantis T3, 250×4.6 mm, 5 micron. • Mobile Phase: (A) methanol-acetonitrile-dipotassium phosphate buffer; or (B) acetonitrile-Sodium sulfate buffer solution • Detection wavelength: 210 nm and 360 nm
as §1

[3] = Solid state stability, physical and chemical (PXRD and HPLC), overall finding; details: 40° C./75% RH and 25° C./60% RH, three months
Protocol: as §1

[4] = Solid state stability, impurities by HPLC; assay type: physicochemical
Protocol: A Zorbax Eclipse XDB C18 column was used with the mobile phase of methanol-acetonitrile-10 mM phosphate buffer solution at the detection wavelength of 350 nm and 260 nm. • Instrumentation: Waters HPLC system having 2695 model pump having UV/PDA detector with Empower chromatography software or its equivalent. • Chemicals: Dipotassium hydrogen phosphate, orthophosphoric acid, acetonitrile, water, sodium hydroxide, methanol. • Column: Zorbax Eclipse XDB C18 column, 250×4.6 mm, 5 μm. • Elution: Gradient. • Flow rate: 0.8 mL/min.
as §1

[5] = 25° C./60% RH, 1 mo., samples as per Example 7 or 17
[6] = 25° C./60% RH, 2 mo., samples as per Example 7 or 17
[7] = 25° C./60% RH, 3 mo., samples as per Example 7 or 17
[8] = 25° C./60% RH, Initial, samples as per Example 7 or 17
[9] = 40° C./75% RH, 1 mo., samples as per Example 7, 17 or 14
[10] = 40° C./75% RH, 2 mo., samples as per Example 7, 17 or 14
[11] = 40° C./75% RH, 3 mo., samples as per Example 7 or 17
[12] = 40° C./75% RH, Initial, samples as per Example 7, 17 or 14

Compound: Cc1cnc(NC(=O)C2=C(O)c3ccccc3S(=O)(=O)N2C)s1.Cc1cnc(NC(=O)C2=C(O)c3ccccc3S(=O)(=O)N2C)s1.O=C(O)CCC(=O)O [Meloxicam:Succinic acid (2:1)]
PXRD [1, 5]: S
PXRD [1, 6]: S
PXRD [1, 7]: S
PXRD [1, 8]: X
PXRD [1, 9]: S
PXRD [1, 10]: S
PXRD [1, 11]: S
PXRD [1, 12]: X
Assay (% by HPLC) M % (Meloxicam Assay %) [2, 5]: 85.2%
Assay (% by HPLC) M % (Meloxicam Assay %) [2, 6]: 85.1%
Assay (% by HPLC) M % (Meloxicam Assay %) [2, 7]: 84.8%
Assay (% by HPLC) M % (Meloxicam Assay %) [2, 8]: 85.1%
Assay (% by HPLC) M % (Meloxicam Assay %) [2, 9]: 84.8%
Assay (% by HPLC) M % (Meloxicam Assay %) [2, 10]: 83.9%
Assay (% by HPLC) M % (Meloxicam Assay %) [2, 11]: 84.9%
Assay (% by HPLC) M % (Meloxicam Assay %) [2, 12]: 85.1%
physical and chemical stability [3]: physically and chemically stable
Impurities (% w/w, by HPLC) Ethyl Meloxicam [4, 5]: BDL
Impurities (% w/w, by HPLC) Methyl Meloxicam [4, 5]: 0.01 % w/w
Impurities (% w/w, by HPLC) Other* (any other individual impurity) [4, 5]: 0.03 % w/w
Impurities (% w/w, by HPLC) Total [4, 5]: 0.14 % w/w
Impurities (% w/w, by HPLC) Ethyl Meloxicam [4, 6]: BDL
Impurities (% w/w, by HPLC) Methyl Meloxicam [4, 6]: BDL
Impurities (% w/w, by HPLC) Other* (any other individual impurity) [4, 6]: 0.03 % w/w
Impurities (% w/w, by HPLC) Total [4, 6]: 0.13 % w/w
Impurities (% w/w, by HPLC) Ethyl Meloxicam [4, 7]: BDL
Impurities (% w/w, by HPLC) Methyl Meloxicam [4, 7]: BDL
Impurities (% w/w, by HPLC) Other* (any other individual impurity) [4, 7]: 0.02 % w/w
Impurities (% w/w, by HPLC) Total [4, 7]: 0.13 % w/w
Impurities (% w/w, by HPLC) Ethyl Meloxicam [4, 8]: BDL
Impurities (% w/w, by HPLC) Methyl Meloxicam [4, 8]: 0.01 % w/w
Impurities (% w/w, by HPLC) Other* (any other individual impurity) [4, 8]: 0.03 % w/w
Impurities (% w/w, by HPLC) Total [4, 8]: 0.06 % w/w
Impurities (% w/w, by HPLC) Ethyl Meloxicam [4, 9]: BDL
Impurities (% w/w, by HPLC) Methyl Meloxicam [4, 9]: 0.01 % w/w
Impurities (% w/w, by HPLC) Other* (any other individual impurity) [4, 9]: 0.03 % w/w
Impurities (% w/w, by HPLC) Total [4, 9]: 0.14 % w/w
Impurities (% w/w, by HPLC) Ethyl Meloxicam [4, 10]: BDL
Impurities (% w/w, by HPLC) Methyl Meloxicam [4, 10]: BDL
Impurities (% w/w, by HPLC) Other* (any other individual impurity) [4, 10]: 0.03 % w/w
Impurities (% w/w, by HPLC) Total [4, 10]: 0.12 % w/w
Impurities (% w/w, by HPLC) Ethyl Meloxicam [4, 11]: BDL
Impurities (% w/w, by HPLC) Methyl Meloxicam [4, 11]: BDL
Impurities (% w/w, by HPLC) Other* (any other individual impurity) [4, 11]: 0.01 % w/w
Impurities (% w/w, by HPLC) Total [4, 11]: 0.08 % w/w
Impurities (% w/w, by HPLC) Ethyl Meloxicam [4, 12]: BDL
Impurities (% w/w, by HPLC) Methyl Meloxicam [4, 12]: 0.01 % w/w
Impurities (% w/w, by HPLC) Other* (any other individual impurity) [4, 12]: 0.03 % w/w
Impurities (% w/w, by HPLC) Total [4, 12]: 0.06 % w/w
Meloxicam Related Compounds A, B, C, and D by HPLC ([4]; any timepoint from initiation up to 3 months, 40° C./75% RH and 25° C./60% RH): ^#Meloxicam Related Compounds A, B, C, and D (see Table 4a) were not detectable at any timepoint from initiation up to 3 months.

pKa (physchem): -0.01
Compound: O=C(O)CCC(=O)O [Succinic acid]

— US20220002283A1 (Mylan Laboratories Limited, priority 2019, published 2022)
